Measurements: US20230365592A1 (Agios Pharmaceuticals, Inc., priority 2022, published 2023)

Target: T1, human PAH with the R408W mutation (Homo sapiens, UniProt P00439, R408W)
T1 construct: expressed in transfected cells
T1 sequence (P00439 1-452 R408W): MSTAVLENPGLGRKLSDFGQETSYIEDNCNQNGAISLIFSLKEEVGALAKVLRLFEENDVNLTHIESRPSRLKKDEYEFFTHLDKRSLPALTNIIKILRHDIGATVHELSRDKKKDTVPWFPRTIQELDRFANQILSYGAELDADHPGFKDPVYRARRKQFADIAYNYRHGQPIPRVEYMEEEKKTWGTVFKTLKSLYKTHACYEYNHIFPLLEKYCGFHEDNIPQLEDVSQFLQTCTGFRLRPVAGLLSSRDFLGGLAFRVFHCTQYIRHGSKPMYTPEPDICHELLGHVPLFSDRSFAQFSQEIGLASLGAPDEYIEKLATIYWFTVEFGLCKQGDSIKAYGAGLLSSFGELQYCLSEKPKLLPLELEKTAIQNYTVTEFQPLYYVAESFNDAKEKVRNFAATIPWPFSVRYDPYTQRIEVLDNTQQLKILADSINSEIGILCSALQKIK
Assay: Cell Based Phenylalanine Flux Assay;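 further: after compound treatment, cells received sepiapterin plus isotope-labelled Phenylalanine for 4 hours, then labelled Tyrosine in the medium was quantified, 10-point 2-fold dilution series run in duplicate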
Settings: A375 cells expressing human R408W PAH; 24 hrs compound incubation; 13C-Tyrosine by LC-MS; average where tested multiple times; read-out: AC50

AC50 [nM] | SMILES
< 500 | O=C(c1nnc(C2CC2)o1)N1CCc2[nH]cnc2[C@H]1c1cc2c(Cl)cccn2n1 [Example 1094, (S)-(4-(4-chloropyrazolo[1,5-a]pyridin-2-yl)-6,7-dihydro-1H-imidazo[4,5-c]pyridin-5(4H)-yl)(5-cyclopropyl-1,3,4-oxadiazol-2-yl)methanone]
> 5000 | O=C(c1nnc(C2CC2)o1)N1CCc2[nH]cnc2[C@@H]1c1cc2c(Cl)cccn2n1 [Example 1095, (R)-(4-(4-chloropyrazolo[1,5-a]pyridin-2-yl)-6,7-dihydro-1H-imidazo[4,5-c]pyridin-5(4H)-yl)(5-cyclopropyl-1,3,4-oxadiazol-2-yl)methanone]
> 5000 | COc1ccc(-c2nnc(C(=O)N3CCc4[nH]cnc4[C@@H]3c3cc4cccc(Cl)n4n3)o2)nc1 [Example 1096, (R)-(4-(7-chloropyrazolo[1,5-a]pyridin-2-yl)-6,7-dihydro-1H-imidazo[4,5-c]pyridin-5(4H)-yl)(5-(5-methoxypyridin-2-yl)-1,3,4-oxadiazol-2-yl)methanone]
500 to 1000 | COc1ccc(-c2nnc(C(=O)N3CCc4[nH]cnc4[C@H]3c3cc4cccc(Cl)n4n3)o2)nc1 [Example 1097, (S)-(4-(7-chloropyrazolo[1,5-a]pyridin-2-yl)-6,7-dihydro-1H-imidazo[4,5-c]pyridin-5(4H)-yl)(5-(5-methoxypyridin-2-yl)-1,3,4-oxadiazol-2-yl)methanone]
> 5000 | Cn1cnc(-c2nnc(C(=O)N3CCc4[nH]cnc4[C@@H]3c3cc4cccc(Cl)n4n3)o2)c1 [Example 1098, (R)-(4-(7-chloropyrazolo[1,5-a]pyridin-2-yl)-6,7-dihydro-1H-imidazo[4,5-c]pyridin-5(4H)-yl)(5-(1-methyl-1H-imidazol-4-yl)-1,3,4-oxadiazol-2-yl)methanone]
500 to 1000 | Cn1cnc(-c2nnc(C(=O)N3CCc4[nH]cnc4[C@H]3c3cc4cccc(Cl)n4n3)o2)c1 [Example 1099, (S)-(4-(7-chloropyrazolo[1,5-a]pyridin-2-yl)-6,7-dihydro-1H-imidazo[4,5-c]pyridin-5(4H)-yl)(5-(1-methyl-1H-imidazol-4-yl)-1,3,4-oxadiazol-2-yl)methanone]
500 to 1000 | Cn1cc(-c2nnc(C(=O)N3CCc4[nH]cnc4[C@H]3c3cc4ccc(F)cn4n3)o2)cn1 [Example 1100, (S)-(4-(6-fluoropyrazolo[1,5-a]pyridin-2-yl)-6,7-dihydro-1H-imidazo[4,5-c]pyridin-5(4H)-yl)(5-(1-methyl-1H-pyrazol-4-yl)-1,3,4-oxadiazol-2-yl)methanone]
> 5000 | Cn1cc(-c2nnc(C(=O)N3CCc4[nH]cnc4[C@@H]3c3cc4ccc(F)cn4n3)o2)cn1 [Example 1101, (R)-(4-(6-fluoropyrazolo[1,5-a]pyridin-2-yl)-6,7-dihydro-1H-imidazo[4,5-c]pyridin-5(4H)-yl)(5-(1-methyl-1H-pyrazol-4-yl)-1,3,4-oxadiazol-2-yl)methanone]
500 to 1000 | Cn1ccc(-c2nnc(C(=O)N3CCc4[nH]cnc4[C@H]3c3cc4ccc(F)cn4n3)o2)n1 [Example 1102, (S)-(4-(6-fluoropyrazolo[1,5-a]pyridin-2-yl)-6,7-dihydro-1H-imidazo[4,5-c]pyridin-5(4H)-yl)(5-(1-methyl-1H-pyrazol-3-yl)-1,3,4-oxadiazol-2-yl)methanone]
> 5000 | Cn1ccc(-c2nnc(C(=O)N3CCc4[nH]cnc4[C@@H]3c3cc4ccc(F)cn4n3)o2)n1 [Example 1103, (R)-(4-(6-fluoropyrazolo[1,5-a]pyridin-2-yl)-6,7-dihydro-1H-imidazo[4,5-c]pyridin-5(4H)-yl)(5-(1-methyl-1H-pyrazol-3-yl)-1,3,4-oxadiazol-2-yl)methanone]
1000 to 5000 | O=C(c1ocnc1C(F)F)N1CCc2[nH]cnc2[C@@H]1c1cc2ccc(C(F)(F)F)cn2n1 [Example 1105, (R)-(4-(difluoromethyl)oxazol-5-yl)(4-(6-(trifluoromethyl)pyrazolo[1,5-a]pyridin-2-yl)-6,7-dihydro-1H-imidazo[4,5-c]pyridin-5(4H)-yl)methanone]
